This is an account of results in PMC8739290, “A phase 1b study of erlotinib and momelotinib for the treatment of EGFR-mutated, tyrosine kinase inhibitor-naive metastatic non-small cell lung cancer” (Cancer Chemotherapy and Pharmacology, 2021).

Where two headings read alike, the source gives them in different places.

The test system of one data set is PC-9 and HCC827 models. Also on record: method as in PMID 32297743, doi:10.1158/7445.AM2017-4046. The conditions noted are these: AZD4205 with osimertinib, increased tumor regression, delayed regrowth, knockdown of pSTAT3; cited from earlier work.
The test system of data set [1] is patients with EGFR TKI-naive, EGFR-mutated NSCLC. In words: Safety in phase 1b dose-escalation study: DLTs and adverse events (CTCAE version 4.03). The text has this: This was an open-label, dose-escalation phase 1b study, which comprised a dose-escalation phase, followed by a planned, randomized, expansion phase of the combination of erlotinib plus momelotinib vs. erlotinib alone (ClinicalTrials.gov Identifier: NCT02206763). An erlotinib lead-in was utilized during the dose-escalation phase since erlotinib’s toxicities of rash and diarrhea onset in the first 2–3 weeks of treatment allowing for (i) dose adjustment for erlotinib-related toxicities as per clinical standard of care prior to combination with momelotinib; (ii) examination of the impact of momelotinib on erlotinib steady-state pharmacokinetics; and (iii) accurate assessment of toxicity attribution during the combination treatment period.
Patients were screened within 28 days of the start of study treatment and cycles were defined as 28 days. Erlotinib was self-administered orally once daily (QD) at least 1 h before or 2 h after a meal, with doses permitted at 50, 75, 100, or 150 mg. Dose reductions were permitted for management of erlotinib-related toxicity such as rash and diarrhea. Momelotinib was dose escalated following a standard 3 + 3 design starting at 100 mg QD (Table 1). Momelotinib was self-administered orally QD or twice daily (BID) (Table 1), with the latter planned dosing frequency differing from that used in myelofibrosis trials. Study treatment continued until disease progression, unacceptable toxicity, or consent withdrawal.
The primary endpoint was the incidence of dose-limiting toxicities (DLTs). Physical exams and safety labs were performed on day 1 of cycle 1, day 15 of cycle 1, and on the first day of each cycle thereafter. Adverse events (AEs) were coded using the Medical Dictionary for Regulatory Activities (MedDRA), graded according to the Common Terminology Criteria for Adverse Events (CTCAE) version 4.03, and collected until 30 days after the last dose of the study treatment.
DLTs were assessed during the first 28 days of combined erlotinib and momelotinib treatment and defined as clinically significant AEs related to study treatment. Prespecified hematologic DLTs only included grade 4 neutropenia (absolute neutrophil count [ANC] < 500/μL) and grade 4 thrombocytopenia (platelet count < 25,000/μL). Important exceptions for related grade 3 nonhematologic toxicities included grade 3 nausea or vomiting ≤ 48 h duration, diarrhea or rash that improved to grade 0 to 1 within 21 days of interruption of erlotinib, and alanine aminotransferase (ALT) or aspartate aminotransferase (AST) ≥ 5 times the upper limit of normal (ULN) that improved to ≤ 3 times the ULN within 21 days. Treatment delays of ≥ 28 days due to a treatment-emergent AEs (TEAEs) were also considered DLTs.
(§1) Any patient who received ≥ 1 dose of study drug was included in the safety and efficacy analyses. Descriptive statistics were used to summarize study characteristics, DLTs, and AEs, including by dose level. ORR was summarized with corresponding two-sided 90% exact confidence intervals (CIs) using the binomial distribution. Both OS and PFS were summarized using Kaplan–Meier estimates and corresponding 90% CIs. Patient concentration data and PK parameters for erlotinib, momelotinib, and its major metabolite GS-644603 were summarized by dose level using descriptive statistics.

Data set [2] is described as follows: Pharmacokinetics of erlotinib during monotherapy and in combination with momelotinib (LC–MS/MS). It is filed as in vivo, human. The conditions noted are these: for Cmax: mean (%CV). The procedure:
Prior to momelotinib dosing, blood samples were collected before a dose of erlotinib and at 0.5, 1, 2, 4, 6, 8, and 24 h after erlotinib dosing. On day 15 of cycle 1, blood samples were collected at the same time points after dosing with momelotinib and erlotinib (the 24-h time point was only applicable for momelotinib QD dosing). The concentrations of momelotinib and its major metabolite GS-644603 were evaluated using a liquid chromatography-tandem mass spectrometry (LC–MS/MS) assay with solid phase extraction validated over the range of 0.5–1000 ng/mL for each analyte. The concentration of erlotinib was determined using an LC–MS/MS assay with protein precipitation validated over the range of 5–5000 ng/mL. […] Pharmacokinetic (PK) parameters were estimated using standard noncompartmental methods with Phoenix WinNonlin® software (Certara, Princeton, NJ).
as §1

The test system of another data set is aldehyde oxidase. More on the design: method as in PMID 32393528. The following applies: cited from earlier work.
Data set [3] has as its system STAT3 signaling in EGFR-mutant cell lines. Also on record: method as in PMID 25065853, PMID 22712764. The following applies: via autocrine- and paracrine-secreted factors such as IL-6; cited from earlier work.
The test system of data set [4] is patients with EGFR-mutated NSCLC. The following applies: erlotinib monotherapy, cited from earlier work.
In data set [5] the test system is patients with documented progression on erlotinib. More on the design: method as in PMID 27613527. The following applies: ruxolitinib in combination with erlotinib, cited from earlier work.
Data set [6] relates to patients who had progressed on at least 1 first-generation EGFR TKI. More on the design: method as in PMID 31319994. The conditions noted are these: ruxolitinib in combination with afatinib, cited from earlier work.
Data set [7] deals with colony formation in soft agar assays. Also on record: method as in PMID 22319590. The following applies: cited from earlier work.
Another data set deals with HCC-827 xenograft models. More on the design: method as in PMID 22319590. The following applies: cited from earlier work.
Another data set deals with HCC4006 xenograft model. More on the design: method as in PMID 25065853. The following applies: ruxolitinib plus erlotinib; cited from earlier work.
Where [8] appears, read: erlotinib + momelotinib, all dose levels, n = 11.
Setting [9] is: randomized phase 3 study, ref 33.

As for `COc1nn(C)cc1Nc1nccc(-c2c[nH]c3c(NC(=O)[C@@H](C)N4CCN(C)CC4)cccc23)n1` [AZD4205, (2R)-N-[3-[2-[(3-Methoxy-1-methyl-pyrazol-4-yl)amino]pyrimidin-4-yl]-1H-indol-7-yl]-2-(4-methylpiperazin-1-yl)propenamide], the “combination activity compared to each agent alone” value in the data set with PC-9 and HCC827 models is listed as “synergistic activity”.

With `C#Cc1cccc(Nc2ncnc3cc(OCCOC)c(OCCOC)cc23)c1` [erlotinib], the “patients who discontinued erlotinib due to AEs” value in data set [1] (2 of 11 patients: grade 4 neutropenia, grade 1 hepatitis B) is on record as 18.2%. Moreover, the “patients with dose reductions of erlotinib (all for AEs)” value in data set [1] (across all dose levels, with momelotinib) came out at 4 patients. In addition, in [1] (setting [8]), the “diarrhea considered related to erlotinib” value came to 63.6%, the “dry skin considered related to erlotinib” value was 54.5% and the “paronychia considered related to erlotinib” value turned out to be 54.5%. In addition, in data set [2] (day 1 of cycle 1 vs day 15 of cycle 1 with momelotinib, all momelotinib dose level groups), the “erlotinib exposure (Cmax and AUCtau), monotherapy vs combination” value is on record as “comparable”. Besides, the Cmax in data set [2] (erlotinib monotherapy, Day 1, dose level 2A cohort, erlotinib 150 mg QD, n = 3) is on record as 2040.0 (42.5) ng/mL. Besides, the Cmax in data set [2] (erlotinib with momelotinib 100 mg BID, Day 15, erlotinib 150 mg QD, n = 5) is reported as 1782.0 (17.3) ng/mL. Besides, the Cmax in data set [2] (erlotinib with momelotinib 200 mg QD, Day 15, erlotinib 150 mg QD, n = 2) is listed as 1740.0 (17.9) ng/mL. The Cmax in [2] (human, in vivo, oral, erlotinib monotherapy, Day 1, dose level 1 cohort, erlotinib 150 mg QD (1 patient 100 mg QD), n = 3, read-out: Cmax) turned out to be 1.81 µg/mL. The “inhibition of aldehyde oxidase” value in the data set on aldehyde oxidase is listed as “potent inhibitor”. Besides, the “effect on STAT3 signaling” value in [3] is “induce feedback activation of STAT3 signaling”. For the same molecule, in data set [4] (randomized phase 3 study, ref 2), the neutropenia rate is reported as 0%. In addition, in data set [4] (setting [9]), the decreased neutrophils rate is listed as 1.8% and the neutropenia rate is recorded as 4.5%. Also, the neutropenia rate in data set [4] (randomized phase 3 study, ref 34) is 6%. Moreover, in [4], the “ANCs less than < 1000/mm^3 (grade 3 or greater)” value is given as “rarely observed”; the “ORR, range over prior studies” value was 62.7 to 83%; the “median PFS, range over prior studies” value was 9.7 to 11 months.

Turning to `N#CC[C@H](C1CCCC1)n1cc(-c2ncnc3[nH]ccc23)cn1` [ruxolitinib], the objective response in data set [5] (1 of 22 patients) is recorded as 5%; in data set [6] (patients with EGFR T790M, 5 of 20), 25%; in [6] (patients without EGFR T790M, 2 of 10), 20%. For the same molecule, the “median PFS” value in data set [5] (95% CI 1.5–4.1) is reported as 2.2 months; in data set [6] (patients with EGFR T790M, 95% CI 2.5–7.3), 4.9 months; in [6] (patients without EGFR T790M, 95% CI 0.0–8.8), 3.1 months. In data set [7], the colony formation entry is “decreased colony formation”. The tumor growth result with HCC-827 xenograft models was “slowed tumor growth”. The “combination activity compared to EGFR inhibition alone” value in the data set with HCC4006 xenograft model was “synergistic activity”.
